Source: patent US7989494B2, “Polymorphs of N-hydroxy-3-[4-[[[2-(2-methyl-1H-indol-3-yl)ethyl]amino]methyl]phenyl]-2E-2-propenamide” (Novartis AG, priority 2006, dated 2011)
Where a name gives a salt, the structure may show the parent alone.

How the values were obtained:
Format in all cases: physicochemical
[1] = Hygroscopicity (descriptive)
[2] = Equilibration in solvents and aqueous media, solid form by XRPD
Intrinsic dissolution = experiment: Intrinsic dissolution
[3] = Solubility in organic solvents
[4] = Sorption-desorption isotherms, VTI humidity balance; settings: for Sorption: 25° C., first sorption cycle; for Desorption: in % (unit assumed)
Description: Sorption-desorption isotherms were recorded by a VTI humidity balance. The salts of (N-hydroxy-3-[4-[[[2-(2-methyl-1H-indol-3-yl)ethyl]amino]methyl]phenyl]-2E-2-propenamide were first subjected to a drying step (25° C., r.h. below 2%, 2 hours) and then to a sorption-desorption-sorption sequence, with each RH % step retained for 3 hours. The free base was kept below 2% r.h. for several hours, and thus was completely dehydrated after the drying step. Only the data of the first sorption cycle are given in the table, since, in all cases, the two sorption cycles were very similar.

Aqueous solubility = settings: water

hygroscopicity [1] | XRPD form after equilibration ([2]; 2-Propanol) | XRPD form after equilibration ([2]; Acetone) | XRPD form after equilibration ([2]; Ethanol) | XRPD form after equilibration ([2]; Ethyl Acetate) | XRPD form after equilibration ([2]; pH = 6.8 buffer (phosphate)) | XRPD form after equilibration ([2]; water) | intrinsic dissolution (Intrinsic dissolution) | Sorption ([4]; Sample RH % 1.5) | Sorption ([4]; Sample RH % 5) | Desorption ([4]; Sample RH % 5) | Sorption ([4]; Sample RH % 25) | Desorption ([4]; Sample RH % 25) | Sorption ([4]; Sample RH % 50) | Desorption ([4]; Sample RH % 50) | Sorption ([4]; Sample RH % 75) | Desorption ([4]; Sample RH % 75) | Sorption ([4]; Sample RH % 85) | Desorption ([4]; Sample RH % 85) | Sorption ([4]; Sample RH % 95) | other results | SMILES
nonhygroscopic | No change | No change | No change | No change | No change | No change | good | 0% | 0.02% | −0.02 | 0.07% | 0.05 | 0.12% | 0.10 | 0.16% | 0.17 | 0.17% | 0.19 | 0.21% | XRPD form after equilibration ([2]; Methanol): No change; solubility in methanol and ethanol [3]: high solubility; solubility in other common / remaining organic solvents [3]: considerable solubility; Desorption ([4]; Sample RH % 95): 0.21; aqueous solubility (Aqueous solubility): 2600 µg/mL | Cc1[nH]c2ccccc2c1CCNCc1ccc(/C=C/C(=O)NO)cc1 [Form A of the maleate salt, N-hydroxy-3-[4-[[[2-(2-methyl-1H-indol-3-yl)ethyl]amino]methyl]phenyl]-2E-2-propenamide]
slightly hygroscopic | No change | Form C of the tartarate salt is obtained | No change | No change | free base | No change | good | 0% | 0.04% | −0.09 | 0.11% | 0.03 | 0.2% | 0.16 | 0.31% | 0.36 | 0.35% | 0.42 | 0.49% | XRPD form after equilibration ([2]; 0.1 N HCl): chloride salt; XRPD form after equilibration ([2]; Acetone, listed as L-Tartarate): No change; XRPD form after equilibration ([2]; Methanol): converts to form C; XRPD form after equilibration ([2]; Methanol, listed as L-Tartarate): Changed to new; solubility in acetone, ethyl acetate and other common organic solvents ([3]; acetone, ethyl acetate and other common organic solvents): good solubility; solubility in alcohols ([3]; alcohols): limited solubility; moisture at 85% r.h. [4]: less than 0.5%; Desorption ([4]; Sample RH % 95): 0.49; aqueous solubility (Aqueous solubility): 3500 µg/mL | Cc1[nH]c2ccccc2c1CCNCc1ccc(/C=C/C(=O)NO)cc1 [Form A of the L-tartarate salt, N-hydroxy-3-[4-[[[2-(2-methyl-1H-indol-3-yl)ethyl]amino]methyl]phenyl]-2E-2-propenamide]
very slightly hygroscopic | No change | No change | No change | No change | free base | converts to form B | high | 0% | 0.03% | −0.03 | 0.1% | 0.07 | 0.16% | 0.16 | 0.23% | 0.25 | 0.31% | 0.33 | 0.82% | XRPD form after equilibration ([2]; 0.1 N HCl): hydrochloride salt; XRPD form after equilibration ([2]; Water, listed as Mesylate): Changed to new; solubility in methanol and ethanol [3]: high solubility; solubility in other common / remaining organic solvents [3]: appreciable solubility; moisture at 85% r.h. [4]: less than 0.35%; Desorption ([4]; Sample RH % 95): 0.82; aqueous solubility (Aqueous solubility): 12900 µg/mL | Cc1[nH]c2ccccc2c1CCNCc1ccc(/C=C/C(=O)NO)cc1 [Form A of the mesylate salt, N-hydroxy-3-[4-[[[2-(2-methyl-1H-indol-3-yl)ethyl]amino]methyl]phenyl]-2E-2-propenamide]
